Assay results reported in the NIST ThermoML archive (doi:10.1016/j.tca.2009.10.001).

Assay: xn = mol fraction of the nth substance listed
Details: 101 kPa, Liquid; for viscosity: Capillary tube (Ostwald / Ubbelohde) method; for speed of sound: Linear variable-path acoustic interferometer; for mass density: Pycnometric method

CCCC#N [butanenitrile] + Cc1ccccc1
Details | mass density, 298.15 K [kg/m3] | mass density, 303.15 K [kg/m3] | mass density, 308.15 K [kg/m3] | speed of sound, 298.15 K [m/s] | speed of sound, 303.15 K [m/s] | speed of sound, 308.15 K [m/s] | viscosity, 298.15 K [mPa·s] | viscosity, 303.15 K [mPa·s] | viscosity, 308.15 K [mPa·s]
x2 = 0 | 784.7 | 780.3 | 775.9 | 1271.4 | 1252.2 | 1233.9 | 0.5463 | 0.5255 | 0.5049
x2 = 0.082 | 792.7 | 788.1 | 783.6 | 1276.3 | 1256.5 | 1237.9 | 0.5484 | 0.5265 | 0.5053
x2 = 0.1673 | 800.8 | 796.1 | 791.5 | 1280.6 | 1260.4 | 1241.7 | 0.5504 | 0.5276 | 0.5058
x2 = 0.2537 | 808.6 | 803.8 | 799.2 | 1284.9 | 1264.5 | 1245.4 | 0.5522 | 0.5287 | 0.5064
x2 = 0.3488 | 816.8 | 812 | 807.4 | 1289.2 | 1268.6 | 1249.3 | 0.5541 | 0.5299 | 0.5069
x2 = 0.4436 | 824.5 | 819.7 | 815.1 | 1292.6 | 1272.2 | 1252.5 | 0.5559 | 0.5309 | 0.5074
x2 = 0.5435 | 832.2 | 827.3 | 822.8 | 1294.9 | 1274.6 | 1254.7 | 0.5576 | 0.5317 | 0.5079
x2 = 0.651 | 839.8 | 834.9 | 830.4 | 1296.7 | 1276.5 | 1256.5 | 0.5592 | 0.5324 | 0.5082
x2 = 0.759 | 846.9 | 841.9 | 837.4 | 1298 | 1277.4 | 1257.8 | 0.5607 | 0.5329 | 0.5084
x2 = 0.8771 | 854.1 | 849.1 | 844.6 | 1298.7 | 1278.3 | 1259 | 0.5622 | 0.5337 | 0.5088
